The values that follow come from PMC4078991 (Nature, 2014).

The subject of data set [1] is apoptotic Jurkat cells. Kind of data set: Time-lapse microscopy of apoptotic cell morphology. The format is cell-based. As to conditions: time-lapse imaging.
A further data set has as its system PANX1-GFP. Kind of data set: Proteolytic cleavage of PANX1-GFP during apoptosis. The format is cell-based. As to conditions: 500 μM.
For data set [2], the system named is apoptotic Jurkat cells. As to the kind of experiment: Formation of apoptotic bodies from apoptotic Jurkat cells. The format is cell-based. As to conditions: for formation of apoptotic bodies: Jurkat cells, anti-Fas induced apoptosis; for formation of apoptotic bodies in Jurkat cells expressing PANX1 DN mutant: inhibitors of blebbing.
Data set [3] concerns the target T1, PANX1 (Homo sapiens, UniProt Q96RD7). The format is cell-based. As to conditions: Jurkat cells 2h anti-Fas, trovafloxacin 20 μM; for effect on outward current of apoptotic cells: at +80mV; for effect on inward current of apoptotic cells: at -50mV.
Another data set has as its system primary thymocytes. It counts as cell-based, mouse. As to conditions: 10 μM.
For a further data set, the system named is Escherichia coli. As to the kind of experiment: Bacterial growth assay. The format is cell-based. As to conditions: 6h incubation, O.D. at 600 nm.
Data set [4] concerns the target T1, PANX1. Kind of data set: TO-PRO-3 uptake by apoptotic Jurkat cells. The format is cell-based. The note with it: for inhibition of TO-PRO-3 uptake (PANX1-dependent dye uptake) by apoptotic cells: anti-Fas, compound present during apoptosis induction.
In data set [5] the target is T1, PANX1. Kind of data set: ATP release from apoptotic cells. It counts as cell-based. As to conditions: apoptotic Jurkat cells.
The next data set deals with connexin 43 (Cx43) (Homo sapiens, UniProt P17302). As to the kind of experiment: Whole-cell patch-clamp of Cx43 current in HEK293T cells. It counts as cell-based. As to conditions: 20 μM. A general note: In patch-clamp work, channel activity is measured electrically.
A further data set deals with T2, mouse Panx2 (Mus musculus, UniProt Q6IMP4).
T2 sequence (Q6IMP4 1-677): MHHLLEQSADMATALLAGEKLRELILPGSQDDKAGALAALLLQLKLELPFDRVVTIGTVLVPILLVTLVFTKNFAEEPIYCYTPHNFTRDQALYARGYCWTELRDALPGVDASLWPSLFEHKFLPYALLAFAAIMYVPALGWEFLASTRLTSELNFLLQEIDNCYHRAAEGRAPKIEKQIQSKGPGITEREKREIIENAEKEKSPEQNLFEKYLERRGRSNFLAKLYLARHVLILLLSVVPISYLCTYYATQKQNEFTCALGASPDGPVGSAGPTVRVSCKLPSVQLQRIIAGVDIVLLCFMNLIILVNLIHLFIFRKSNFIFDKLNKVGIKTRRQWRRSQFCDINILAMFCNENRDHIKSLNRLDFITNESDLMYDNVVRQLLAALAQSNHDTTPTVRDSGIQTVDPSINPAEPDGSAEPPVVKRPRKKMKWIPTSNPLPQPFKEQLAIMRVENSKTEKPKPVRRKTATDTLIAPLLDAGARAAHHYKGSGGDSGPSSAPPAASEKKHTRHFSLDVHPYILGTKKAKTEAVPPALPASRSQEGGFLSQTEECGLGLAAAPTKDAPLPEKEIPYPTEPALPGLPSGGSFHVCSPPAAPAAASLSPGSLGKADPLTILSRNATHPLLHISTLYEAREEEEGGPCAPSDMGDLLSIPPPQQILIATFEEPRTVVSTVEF
Kind of data set: Whole-cell patch-clamp of Panx2 current in HEK293T cells. It counts as cell-based. As to conditions: 20 μM.

The next data set concerns caspase 3/7. As to the kind of experiment: Caspase 3/7 activation in Jurkat cells undergoing apoptosis. It counts as cell-based. As to conditions: trovafloxacin 40 μM.
For data set [6] the following is noted: cited from earlier work.
The conditions of data set [7]: cited from earlier work. The source holds these as a separate data set.
A further data set deals with apoptotic thymocytes. Kind of data set: In vivo model of thymic apoptosis. Details: species or system mouse. The note with it: wild-type mice, administered with dexamethasone.

T1 sequence (Q96RD7 1-379 limits assumed): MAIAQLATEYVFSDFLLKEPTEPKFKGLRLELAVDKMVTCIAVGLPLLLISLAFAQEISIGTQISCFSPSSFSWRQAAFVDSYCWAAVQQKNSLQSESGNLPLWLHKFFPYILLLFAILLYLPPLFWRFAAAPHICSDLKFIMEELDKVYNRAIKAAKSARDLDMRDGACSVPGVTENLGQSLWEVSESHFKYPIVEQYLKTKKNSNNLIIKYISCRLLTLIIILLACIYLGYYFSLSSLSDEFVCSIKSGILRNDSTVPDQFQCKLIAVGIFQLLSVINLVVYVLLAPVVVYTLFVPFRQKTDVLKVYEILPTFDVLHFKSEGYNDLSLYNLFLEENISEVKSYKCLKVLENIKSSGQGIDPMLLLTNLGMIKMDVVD
connexin 43 (Cx43), sequence (P17302 2-382 limits assumed, species assumed): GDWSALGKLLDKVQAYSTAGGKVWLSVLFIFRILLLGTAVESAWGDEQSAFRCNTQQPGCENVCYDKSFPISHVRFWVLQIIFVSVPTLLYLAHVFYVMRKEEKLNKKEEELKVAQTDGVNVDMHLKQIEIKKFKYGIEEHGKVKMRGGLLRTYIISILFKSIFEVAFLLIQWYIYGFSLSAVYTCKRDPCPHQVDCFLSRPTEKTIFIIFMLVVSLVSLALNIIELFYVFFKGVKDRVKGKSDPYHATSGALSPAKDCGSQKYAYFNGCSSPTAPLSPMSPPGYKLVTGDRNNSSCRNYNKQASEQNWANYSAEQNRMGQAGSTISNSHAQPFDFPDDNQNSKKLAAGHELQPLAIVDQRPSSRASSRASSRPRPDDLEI

Consider `CC1(C)[C@@H](OC(=O)CCC(=O)O)CC[C@]2(C)[C@H]3C(=O)C=C4[C@@H]5C[C@@](C)(C(=O)O)CC[C@]5(C)CC[C@@]4(C)[C@]3(C)CC[C@@H]12` [CBX, carbenoxolone], for which, in the data set on apoptotic Jurkat cells [1], the “formation of apoptopodia (string-like structures) by apoptotic cells” value is recorded as “produced long string-like structures”. The “proteolytic cleavage of PANX1-GFP during apoptosis” value in the data set on PANX1-GFP was “not inhibited”. Also, the “formation of apoptotic bodies” value with apoptotic Jurkat cells [2] was “promoted formation of apoptotic bodies”. For the same molecule, on PANX1 [3], the “effect on outward current of apoptotic cells” value was “blocked both inward and outward currents”; the “effect on inward current of apoptotic cells” value is “blocked both inward and outward currents”.
As for `C[C@@H](N)[C@H]1CC[C@H](C(=O)Nc2ccncc2)CC1` [Y-27632], the “formation of apoptotic bodies in Jurkat cells expressing PANX1 DN mutant” value in the data set with apoptotic Jurkat cells [2] is “reduce the formation of apoptotic bodies”. Moreover, in the data set with primary thymocytes, the “enhanced formation of apoptotic bodies in apoptotic thymocytes from mice with PANX1 deficiency” value is given as “blunted”.
In the case of `Cc1ccc2c(c1)C(=O)C1(O)CCN(c3ccccc3)C1=N2` (centres unmarked) [blebbistatin], the “formation of apoptotic bodies in Jurkat cells expressing PANX1 DN mutant” value in the data set with apoptotic Jurkat cells [2] is “reduce the formation of apoptotic bodies”.
On to `O=C(O)c1cn(C2CC2)c2cc(N3CCNCC3)c(F)cc2c1=O` [ciprofloxacin], for which the Escherichia coli growth result in the data set on Escherichia coli is “inhibit bacterial growth”.
Turning to `C=C1[C@@H](C)[C@H]2[C@H](Cc3ccccc3)NC(=O)[C@]23[C@H](OC(C)=O)/C=C/[C@@](C)(O)C(=O)[C@@H](C)C/C=C/[C@H]3[C@@H]1O` [cytochalasin D], in the data set on apoptotic Jurkat cells [2], the “formation of apoptotic bodies in Jurkat cells expressing PANX1 DN mutant” value is “reduce the formation of apoptotic bodies”.
For the molecule `CN1CCN(c2cc3c(cc2F)c(=O)c(C(=O)O)cn3-c2ccc(F)cc2)CC1` [difloxacin], the “inhibition of TO-PRO-3 uptake (PANX1-dependent dye uptake) by apoptotic cells” value (from here on “inhibition of TO-PRO-3 uptake”) on PANX1 [4] is “partially inhibited ATP release and TO-PRO-3 uptake”. In addition, on PANX1 [5], the “inhibition of ATP release from apoptotic cells” value (“inhibition of ATP release” for short) is on record as “partially inhibited ATP release”. Besides, the “formation of apoptotic bodies” value in the data set on apoptotic Jurkat cells [2] is “promoted the formation of apoptotic bodies”.
Regarding `C[C@H]1COc2c(N3CCN(C)CC3)c(F)cc3c(=O)c(C(=O)O)cn1c23` [levofloxacin], the “inhibition of TO-PRO-3 uptake” value against PANX1 [4] is listed as “did not block PANX1-dependent dye uptake”. Moreover, in the data set with Escherichia coli, the Escherichia coli growth result is listed as “inhibit bacterial growth”.
On to `CCCN(CCC)S(=O)(=O)c1ccc(C(=O)O)cc1` [probenecid], for which the “formation of apoptotic bodies” value in the data set on apoptotic Jurkat cells [2] is reported as “promoted formation of apoptotic bodies”.
With `Cc1ccc(C(=O)Nc2ccc(S(=O)(=O)O)c3cc(S(=O)(=O)O)cc(S(=O)(=O)O)c23)cc1NC(=O)c1cccc(NC(=O)Nc2cccc(C(=O)Nc3cc(C(=O)Nc4ccc(S(=O)(=O)O)c5cc(S(=O)(=O)O)cc(S(=O)(=O)O)c45)ccc3C)c2)c1` [suramin], the “formation of apoptotic bodies” value in the data set with apoptotic Jurkat cells [2] is on record as “did not enhance formation of apoptotic bodies”.
Consider `NC1CCN(c2nc3c(cc2F)c(=O)c(C(=O)O)cn3-c2ccc(F)cc2F)C1` (centres unmarked) [tosulfoxacin, tosufloxacin], for which the “inhibition of TO-PRO-3 uptake” value against PANX1 [4] was “partially inhibited ATP release and TO-PRO-3 uptake”. The “inhibition of ATP release” value on PANX1 [5] is recorded as “partially inhibited ATP release”. Moreover, the “formation of apoptotic bodies” value in the data set with apoptotic Jurkat cells [2] is “promoted the formation of apoptotic bodies”.
Consider `N[C@@H]1[C@H]2CN(c3nc4c(cc3F)c(=O)c(C(=O)O)cn4-c3ccc(F)cc3F)C[C@@H]12` [trovafloxacin], for which the “inhibition of connexin 43 gap junction current” value at connexin 43 (Cx43) is recorded as “did not inhibit”. In addition, the “formation of apoptopodia (string-like structures) by apoptotic cells” value in the data set on apoptotic Jurkat cells [1] is “produced long string-like structures”. Besides, the “inhibition of PANX2 current” value against mouse Panx2 is recorded as “did not inhibit”. Further, the “inhibition of TO-PRO-3 uptake” value against PANX1 [4] is recorded as “potent inhibitor of TO-PRO-3 uptake”. The “TO-PRO-3 uptake after acute treatment of cells already undergoing apoptosis” value at PANX1 [4] (compound added post induction of apoptosis, 20 min) is “acutely blocked TO-PRO-3 uptake”. Moreover, the “caspase 3/7 activation during apoptosis” value in the data set on caspase 3/7 is listed as “did not inhibit caspase 3/7 activation”. For the same molecule, the “side effects linked to use in patients” value in [6] is on record as “serious adverse side effects”. In addition, the “concentrations normally achieved in human plasma” value in [7] was 2000 to 10000 nM. The “fragmentation of apoptotic thymocytes in vivo (SSC high particles)” value in the data set on apoptotic thymocytes is recorded as “promoted the fragmentation of the apoptotic thymocytes”. The “inhibition of ATP release” value on PANX1 [5] was “inhibited ATP release”. Also, the “formation of apoptotic bodies” value in the data set on apoptotic Jurkat cells [2] was “promoted the formation of apoptotic bodies in a concentration-dependent manner”. Further, the Escherichia coli growth result with Escherichia coli is given as “inhibit bacterial growth”. At PANX1 [3], the “effect on outward current of apoptotic cells” value is on record as “minimal effect on outward current” and the “effect on inward current of apoptotic cells” value is listed as “rapidly inhibited the inward current”.
With apyrase, the “formation of apoptotic bodies” value with apoptotic Jurkat cells [2] is “did not promote the formation of apoptotic bodies”.
